Data on nine compounds can be found in patent US9562053B2, “Benzo-fused heterocyclic derivatives useful as agonists of GPR120” (Janssen Pharmaceutica NV, priority 2013, dated 2017).

Molecules are shown by their SMILES.

Format in all cases: cell-based
The target of experiment [1] is T1, long form of human GPR120 (Homo sapiens, UniProt Q5NUL3).
T1 construct: host or cells: PathHunter CHO-K1 GPR120 β-Arrestin Cell Line
T1 sequence (Q5NUL3 1-377 isoform Q5NUL3-1): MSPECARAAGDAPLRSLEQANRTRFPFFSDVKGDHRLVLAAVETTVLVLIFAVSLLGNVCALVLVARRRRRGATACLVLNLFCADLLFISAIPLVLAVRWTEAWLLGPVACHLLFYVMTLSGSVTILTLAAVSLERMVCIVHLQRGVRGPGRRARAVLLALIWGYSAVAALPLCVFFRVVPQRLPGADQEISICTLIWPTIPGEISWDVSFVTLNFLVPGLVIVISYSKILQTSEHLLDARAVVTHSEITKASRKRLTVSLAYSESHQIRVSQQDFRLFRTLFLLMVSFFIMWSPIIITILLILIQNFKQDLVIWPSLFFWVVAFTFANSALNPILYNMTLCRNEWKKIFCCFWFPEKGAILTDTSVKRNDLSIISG
Nature of the experiment: Human GPR120 DiscoveRx PathHunter Beta-Arrestin Assay, Procedure β-arrestin A (3000 cells per well). As to conditions: read-out: GPR120 B-arrestin A EC50. The source says:
(§1) The binding of an agonist (medium/long chain fatty acids or small molecule agonists) to the G-protein-coupled receptor GPR120 activates phospholipase C, leading to release of intracellular Ca^+2 through the generation of inositol 1,4,5-trisphosphate (InsP3 or IP3). GPR120 activation can also trigger intracellular signaling via recruitment of β-Arrestin. In the present method, agonist-induced activation of the human GPR120 receptor is monitored through the use of PathHunter CHO-K1 GPR120 β-Arrestin Cell Line engineered by DiscoveRx, as detailed below. The cell lines are designed to co-express both the ProLink/Enzyme Donor (PK)-tagged GPCR and the Enzyme Activator (EA)-tagged β-Arrestin fusion proteins. Upon GPR120 receptor stimulation/activation, the EA-tagged β-Arrestin portion is translocated to the tagged receptor, where the two enzyme fragments are brought within close proximity. Under these conditions, these fragments can interact and form an active Beta-gal enzyme complex through Enzyme Fragment Complementation (EFC). This active Beta-gal complex can enzymatically hydrolyse the substrate to produce a detectable light signal; therefore, activation as a function of agonist concentration can be expressed as an EC50 value to determine relative compound activities. This in vitro assay therefore serves to assess compound agonist activity of the GPR120.
In Procedure β-arrestin A, the cell used were PathHunter CHO-K1 GPR120 β-Arrestin Cell Line, expressing the long form of human GPR120 (Genbank accession number NM_181745), with 3000 cells per well.
(§2) The selected CHO-K1 GPR120 β-Arrestin cells were cultured in Ham's F12 media supplemented with 10% fetal bovine serum (FBS), 1% Glutamine, 1×p/s, 800 μg/ml G418 and 300 μg/ml Hygromycin B (for selection). Cell stocks were maintained and grown in a sub-confluent state using standard cell culture procedures. The day before the experiment, the cells were harvested with non-enzymatic cell dissociation buffer and re-suspended in complete growth media at the desired concentration. A Corning 384-plate was then seeded with the proper number of cells in a volume of 25 μL, per well. The seeded plates were incubated overnight at 37° C.
(§3) On the day of the experiment, the Assay Buffer containing (a) HBSS with Ca^++ and Mg^++, (b) 20 mM HEPES, and (c) 0.1% BSA stabilizer (pH 7.4) was prepared. The growth medium was gently removed from the cell plates and 20 μL of Assay Buffer added to each well. The plate was then incubated at 37° C. for 60 mins. Test compounds were serially diluted in Assay Buffer to desired concentrations (more particularly, to one or more of the following μM concentrations: 25 μM, 12.5 μM, 6.25 μM, 3.125 μM, 1.562 μM, 0.781 μM, 0.391 μM, 0.195 μM, 0.098 μM, 0.049 μM, 0.024 μM, 0.012 μM). Five μl of compound dilution was then added to each well and the plate incubated at 37° C. for 90 mins. The detection reagents were prepared according to the manufacture's instruction. Twelve μL of the detection reagents were added to each well and the plate incubated at room temperature for 60 mins.
(§4) The plates were read on an EnVision instrument, using Protocol name: Luminescence, Plate type: 384 Costar, Measurement height: 3 mm, Measurement time: 1 s, Aperture: 384 Plate aperture. The % activity relative to the positive control was calculated using the following equation:
(§5) The % Activity values were plotted versus the concentration of test compound and fitted to a sigmoidal dose-response curve with a Hill slope=1 (fixed value) using nonlinear regression with GraphPad Prism 5.0 to calculate the EC50 values. The Fitting Equation was: Y=Bottom+(Top−Bottom)/(1+10^((LogEC50−X)*HillSlope)), where X is the log of the concentration and Y is the response.

For the next experiment, the target named is T2, Human GPR120 short form (Homo sapiens, UniProt Q5NUL3).
T2 construct: expressed in transfected cells
T2 sequence (Q5NUL3 1-361): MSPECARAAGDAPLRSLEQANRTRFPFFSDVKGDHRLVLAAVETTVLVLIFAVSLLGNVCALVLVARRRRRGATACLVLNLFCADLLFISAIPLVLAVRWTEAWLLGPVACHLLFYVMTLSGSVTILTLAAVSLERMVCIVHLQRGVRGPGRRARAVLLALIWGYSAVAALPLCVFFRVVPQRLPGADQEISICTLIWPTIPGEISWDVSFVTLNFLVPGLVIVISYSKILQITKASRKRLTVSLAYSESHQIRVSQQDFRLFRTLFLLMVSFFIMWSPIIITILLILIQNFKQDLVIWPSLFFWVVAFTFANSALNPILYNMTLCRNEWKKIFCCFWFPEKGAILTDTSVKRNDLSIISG
Nature of the experiment: Human GPR120 in Calcium Flux Assay, Procedure Calcium A (2500 cells/well). From the text: This in vitro assay serves to assess test compound agonist activity against the short splice variant (SVS with Accession number NM_001195755.1 confirmed by sequencing data) of the GPR120 receptor. The Human Short splice variant #2 (NM_001195755.1) is missing an in-frame coding exon compared to variant 1 (the Human Long splice variant NM_181745.3), resulting in a shorter isoform (GPR120-S) lacking a 16 aa protein segment compared to isoform GPR120-L. The assay platform utilizes HEK-293 cells stably transfected to express the Human GPR120 short form. These cells are first loaded with the Ca^+2 sensitive dye, Fluo-4 NW. Upon stimulation, intracellular released Ca^+2 can bind to the dye and alter its fluorescence intensity. This increase in fluorescence signal, and thus the flux in intracellular [Ca^+2], is detected and quantitated by fluorescence imaging using a FLIPR reader. The effect of the agonist is measured as a function of concentration and used to calculate an EC50 based upon a response curve.
In this procedure 2500 cells/well were employed.
A Human GPR120 clone (Genbank accession number NM_001195755.1) was placed into the pcDNA3.1 mammalian expression vector carrying the neomycin resistance gene. A stable mammalian cell was generated by placing the above clone into a HEK293 background. Clonal cells responding to long chain fatty acids had expression levels of GPR120 confirmed by RT-qPCR. Human HEK-GPR120 cells were cultured in Dulbecco's Modified Eagle's Medium (DMEM)/F12 medium supplemented with 10% fetal bovine serum (FBS), 1% L-Glutamine and 1% penicillin/streptomycin and 0.5 mg/ml G-418. Cells were split 2 times a week to keep the cells in the log-phase growth.
In preparation for the assay, HEK cells stably transfected with Human GPR120 (2.5K cells per well in 25 uL growth medium) were seeded into 384-well plates and then incubated overnight (37° C., 5% CO2). The next day, the media was changed to 20 μl assay buffer and the cell starved for 1 h at 37° C. The dye loading solution (2× dye) was prepared using 10 ml assay buffer, 100 μl of 250 mM probenecid, 1 bottle of Component A, and 20 μl of dye in DMSO. Twenty μl of the 2× dye loading buffer was then added to each well. The plates were incubated at 37° C. for 30 min, then at room temperature for an additional 15 minutes, before performing the assay on FLIPR.
Test compounds were prepared in assay buffer (2 μl of test compound+198 μl assay buffer, final DMSO in assay plate is 0.2%) at the desired concentration, more particularly at 100 μM, 50 μM, 25 μM, 12.5 μM, 6.25 μM, 3.125 μM, 1.562 μM, 0.781 μM, 0.391 μM, 0.195 μM, 0.098 μM, 0.049 μM, 0.024 μM and 0.012 μM.
The assay was performed on a FLIPR plate reader using the following parameters. Baseline was read for 10 seconds at 1 sec intervals. The program was set to transfer 10 μL of ligand from compound plate to cell plate after baseline reading. Aspiration was executed at: 10 μl/sec speed, 4.6 μl height; Dispensing was executed at: 30 μl/sec speed, 45 μl height. After compound addition, each well was read for 300 sec, with measurements collected at 1 sec intervals.
The kinetic data from the FLIPR was based upon a 5 minute window for data collection. The fluorescence of each sample well was used for individual calculations of a normalized RFU value, which was defined as maximum response minus the minimum response. The normalized fluorescence reading (RFU) was calculated as follows: RFU=Fmax−Fmin
The data were fitted to a sigmoidal dose-response curve with a variable Hill slope (<2) using nonlinear regression with GraphPad Prism 5.0 to calculate the EC50 values. The Fitting Equation was: Y=Bottom+(Top−Bottom)/(1+10^((LogEC50−X)*HillSlope)), where X is the log of the concentration and Y is the response.
In general terms: Calcium flux is commonly read through the fluorescence of an indicator in the cells.

In experiment [2] the target is T3, short form of the GPR120 receptor (Homo sapiens, UniProt Q5NUL3).
T3 construct: host or cells: PathHunter CHO-K1 GPR120S β-Arrestin Cell Line
T3 sequence (Q5NUL3 1-361): T2 sequence (Q5NUL3 1-361)
Kind of experiment: Human GPR120 DiscoveRx PathHunter Beta-Arrestin Assay, Procedure β-arrestin B (5000 cells/well).
Description: as §1
In Procedure β-arrestin B the cells used were PathHunter CHO-K1 GPR120S β-Arrestin Cell Line, expressing the short form of the GPR120 receptor (Accession #NM_181745), with 5000 cells/well.
as §2, §3, §4, §5

As to `Cc1oc2cccc(COc3ccc(CCC(=O)O)c(F)c3F)c2c1C` [Compound 1, 3-{4-[(2,3-Dimethyl-1-benzofuran-4-yl)methoxy]-2,3-difluorophenyl}propanoic acid], the EC50 – broadly, the concentration at which the effect is half-maximal – in experiment [1] was above 20000 nM.
On the same count and under the same terms, as for `Cc1cc2c(COc3ccc(CCC(=O)O)c(F)c3F)cccc2o1` [Compound 6, 3-{2,3-Difluoro-4-[(2-methyl-1-benzofuran-4-yl)methoxy]phenyl}propanoic acid], the figure is above 20000 nM; as for `CCCc1cc2cc(C(C)(F)F)cc(COc3ccc(CCC(=O)O)c(C)c3C)c2o1` [Compound 79, 3-(4-{[5-(1,1-Difluoroethyl)-2-propyl-1-benzofuran-7-yl]methoxy}-2,3-dimethylphenyl)propanoic acid], 2220 nM.
With `Cc1cc2cc(OC(F)(F)F)cc(COc3ccc(CCC(=O)O)c(C(F)(F)F)c3)c2o1` [Compound 112, 3-[4-{[2-Methyl-5-(trifluoromethoxy)-1-benzofuran-7-yl]methoxy}-2-(trifluoromethyl)phenyl]propanoic acid], the EC50 came to 121 nM at Human GPR120 short form and 110 nM in experiment [2].
As for `Cc1c(CCC(=O)O)ccc(OCc2cc(F)cc3sc(CC(C)C)nc23)c1C` [Compound 115, 3-(4-{[6-Fluoro-2-(2-methylpropyl)-1,3-benzothiazol-4-yl]methoxy}-2,3-dimethylphenyl)propanoic acid], the EC50 on Human GPR120 short form worked out at 468 nM; in experiment [2], 772 nM.
In the same order, the values of `Cc1c(CCC(=O)O)ccc(OCc2cc(F)cc3sc(C(F)(F)F)nc23)c1C` [Compound 117, 3-(4-{[6-Fluoro-2-(trifluoromethyl)-1,3-benzothiazol-4-yl]methoxy}-2,3-dimethylphenyl)propanoic acid] are 422 nM and 681 nM.
The corresponding values for `Cc1nc2c(COc3ccc(CCC(=O)O)c(C)c3C)cc(OC(F)(F)F)cc2s1` [Compound 118, 3-(2,3-Dimethyl-4-{[2-methyl-6-(trifluoromethoxy)-1,3-benzothiazol-4-yl]methoxy}phenyl)propanoic acid] are 65 nM and 237 nM.
`Cc1c(CCC(=O)O)ccc(OCc2cc(Cl)cc3sc(C(F)(F)F)nc23)c1C` [Compound 119, 3-(4-{[6-Chloro-2-(trifluoromethyl)-1,3-benzothiazol-4-yl]methoxy}-2,3-dimethylphenyl)propanoic acid]: the EC50 in experiment [2] was 1440 nM.
As for `Cc1nc2cc(Cl)cc(COc3ccc(CCC(=O)O)c(C)c3C)c2s1` [Compound 121, 3-{4-[(5-Chloro-2-methyl-1,3-benzothiazol-7-yl)methoxy]-2,3-dimethylphenyl}propanoic acid], the EC50 on Human GPR120 short form came to 382 nM; in experiment [2] it was 1190 nM.
